Counter-ions that a name gives are not always drawn.

From the supplement of paper PMC10290057 come the findings set out here.
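Also: Luminescence-based viability readout, five doses per compound, normalized against on-plate DMSO and empty-well controls, followed by dose-response curve fitting for every drug.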

For this experiment, the system named is HCT116. The experiment can be described thus: efficacy (fitted maximal change in viability relative to DMSO control); higher = less cytotoxic (negative = loss of viability). Particulars: 48 h.
As for `CC1(C)S[C@H]2[C@H](NC(=O)[C@@H](N)c3ccc(O)cc3)C(=O)N2[C@H]1C(=O)O` [Amoxicillin sodium], the efficacy turned out to be 6.82%.

For `C[C@@H]1CC2=C(C=C3OCOC3=C2)C(=N\N1C(C)=O)/C4=CC=C(N)C=C4` [Ampanel], the efficacy was -12.4%.

As for `C[C@@H]1[C@H](O)[C@@H](C)/C=C/C=C/C=C/C=C/C=C/C=C/C=C/[C@H](O[C@@H]2O[C@H](C)[C@@H](O)[C@H](N)[C@@H]2O)C[C@@H]2O[C@](O)(C[C@@H](O)C[C@@H](O)[C@H](O)CC[C@@H](O)C[C@@H](O)CC(=O)O[C@H]1C)C[C@H](O)[C@H]2C(=O)O` [Amphotericin B], the efficacy was -15.3%.

In the case of `N#CC(O[C@@H]1O[C@H](CO[C@@H]2O[C@H](CO)[C@@H](O)[C@H](O)[C@H]2O)[C@@H](O)[C@H](O)[C@H]1O)c1ccccc1` (stereo partly specified) [Amygdalin], the efficacy stood at 29%.

For the molecule `COc1cc(F)c(C(C)C)cc1-c1ccc(C(F)(F)F)cc1CN1C(=O)O[C@H](c2cc(C(F)(F)F)cc(C(F)(F)F)c2)[C@@H]1C` [Anacetrapib], the efficacy was -14.3%.

In the case of `ClC1=CC=C2N/C3=N/C(=O)CN3CC2=C1Cl` [Anagrelide], the efficacy was -14.6%.

Regarding `CN(C)N(C)C(=O)[C@@]1(Cc2ccccc2)CCCN(C(=O)[C@@H](Cc2c[nH]c3ccccc23)NC(=O)C(C)(C)N)C1` [Anamorelin], the efficacy is -33.8%.

In the case of `CC(C)(C#N)c1cc(Cn2cncn2)cc(C(C)(C)C#N)c1` [Anastrozole], the efficacy was -11.5%.

For the molecule `CC(=O)Nc1ccc(OC[C@](C)(O)C(=O)Nc2ccc([N+](=O)[O-])c(C(F)(F)F)c2)cc1` [Andarine], the efficacy is -7.63%.

On to `COc1ccc(C(=O)N2CCCC2=O)cc1` [Aniracetam], for which the efficacy was -17.4%.

With `CNC(=O)c1ccc(N2C(=S)N(c3cnc(C#N)c(C(F)(F)F)c3)C(=O)C23CCC3)cc1F` [Apalutamide], the efficacy is -24.3%.

For the molecule `N#CC1(c2ccc(NC(=O)c3cccnc3NCc3ccncc3)cc2)CCCC1` [Apatinib], the efficacy was -32.7%.

For `Cn1c(/C=C/CO)c(CO)c2c1C(=O)C=C(N1CC1)C2=O` [Apaziquone], the efficacy was -8.27%.

On to `OC1=CC=C(C=C1)\C2=C\C(=O)C3=C(O2)C=C(O)C=C3O` [Apigenin], for which the efficacy was -82%.

As to `NNc1nncc2ccccc12` [Apresoline], the efficacy was found to be 28.9%.

`CC1CNc2c(cccc2[S+](=O)([O-])N[C@@H](CCCNC(=N)N)C(=O)N2CC[C@@H](C)C[C@@H]2C(=O)O)C1` (stereo partly specified) [Argatroban]: the efficacy is -15.9%.

On to `CO[C@H]1O[C@@H]2O[C@@]3(C)CC[C@H]4[C@H](C)CC[C@@H]([C@H]1C)[C@@]24OO3` [Artemether], for which the efficacy was -12.5%.

With `CN1C[C@@H]2c3ccccc3Oc3ccc(Cl)cc3[C@H]2C1` [Asenapine maleate], the efficacy is -77.1%.

Turning to `CC(C)(O)[C@H]1CC[C@@](C)([C@H]2[C@@H](O)C[C@@]3(C)[C@@H]4C[C@H](O[C@@H]5O[C@H](CO)[C@@H](O)[C@H](O)[C@H]5O)[C@H]5C(C)(C)[C@@H](O[C@@H]6OC[C@@H](O)[C@H](O)[C@H]6O)CC[C@@]56C[C@@]46CC[C@]23C)O1` [Astragaloside A], the efficacy was 6.04%.

In the case of `CC/1=C/2C[C@H]3C(=C)CCC[C@]3(C)/C=C2OC1=O` [Atractylenolide I], the efficacy worked out at 6.55%.

`CN1C2CCC1CC(OC(=O)C(CO)c1ccccc1)C2` (stereo unspecified) [Atropine (sulfate monohydrate)]: the efficacy is -6.96%.

`COc1ccc([C@@H]2CC(=O)c3c(O)cc(O[C@@H]4O[C@H](CO[C@@H]5O[C@@H](C)[C@H](O)[C@@H](O)[C@H]5O)[C@@H](O)[C@H](O)[C@H]4O)cc3O2)cc1O` [Aurantiamarin (Methyl Hesperidin)]: the efficacy was -15%.

Turning to `Cc1ccc(NC(=O)[C@H]2CCCN(C(=O)c3c(C)cccc3F)[C@H]2c2ccc(NC3CCCC3)cc2)cc1C(F)(F)F` [Avacopan], the efficacy is -27.6%.

Consider `NC(=O)[C@@H](CCC(F)(F)F)N(Cc1ccc(-c2ncon2)cc1F)[S+](=O)([O-])c1ccc(Cl)cc1` [Avagacestat], for which the efficacy is -65.8%.

As for `COc1ccc(C(=O)CC(=O)c2ccc(C(C)(C)C)cc2)cc1` [Avobenzone], the efficacy is -43.1%.

As to `CN1C(=O)COc2c(C(=O)NC3CN4CCC3CC4)cc(Cl)cc21` (stereo unspecified) [Azasetron hydrochloride], the efficacy was 21.5%.

As for `CC[C@H]1OC(=O)[C@H](C)[C@@H](O[C@H]2C[C@@](C)(OC)[C@@H](O)[C@H](C)O2)[C@H](C)[C@@H](O[C@@H]2O[C@H](C)C[C@H](N(C)C)[C@H]2O)[C@](C)(O)C[C@@H](C)CN(C)[C@H](C)[C@@H](O)[C@]1(C)O` [Azithromycin], the efficacy is -20.7%.

In the case of `CCOc1ccccc1N/N=C1/C(=O)N(c2nc(-c3ccccc3)cs2)N=C1C` [BAM-7], the efficacy is -7.98%.

For `O=C(O)CC(C(=O)O)N1C(=O)/C(=C2/C(=O)Nc3ccc(Br)cc32)SC1=S` (stereo unspecified) [BCL6 Inhibitor], the efficacy was -11.7%.

`CN(C)CCN(C)CCc1ccc(Cl)c(Cl)c1` [BD-1047]: the efficacy was -29.2%.

As to `C[C@H]1CC2[C@@H]3CCC/4=C/C(=O)/C=C\[C@]4(C)[C@@]3(F)[C@@H](O)C[C@]2(C)[C@@]1(O)C(=O)CO` (stereo partly specified) [BETAMETHASONE], the efficacy is -11.5%.

`O=C(Nc1cccc(C(F)(F)F)c1)c1cccc2cc(Oc3cc(CO)ncn3)ccc12` [BFH-772]: the efficacy came to 15.5%.

With `N/C(=N\OCC(O)CN1CCCCC1)c1cccnc1` (stereo unspecified) [BGP-15], the efficacy was -14.5%.

Turning to `OC1=CC=C2\C3=C(CNCC3)/C(=O)OC2=C1C4OCCCO4` [BI09], the efficacy worked out at 9.24%.

Turning to `CC[C@@H]1C(=O)N(C)c2cnc(Nc3ccc(C(=O)NC4CCN(C)CC4)cc3OC)nc2N1C1CCCC1` [BI-2536], the efficacy was -71.6%.

With `COC1=CC(=CC(=C1CN(C)C)OC)\C2=C\N(C)C(=O)C3=C2C=CN=C3` [BI-7273], the efficacy was -29.9%.

Regarding `C/C(=C\C(=O)Nc1ccccc1C(=O)O)c1ccc2ccccc2c1` [BIBR-1532], the efficacy is -69.1%.

As for `C=CC(=O)N[C@H]1CCOC[C@H]1Nc1ncc2cc(-c3c(Cl)c(OC)cc(OC)c3Cl)ccc2n1` [BLU-554], the efficacy was -30.8%.

Consider `C=CC(=O)Nc1cccc(C)c1Nc1ncc2cc(-c3c(Cl)c(OC)cc(OC)c3Cl)ccc2n1` [BLU-9931], for which the efficacy is -50.4%.

Consider `C[N]1N=CN=C1[C@@H]2[C@H](NC3=CC(=CC4=C3\C2=N/NC4=O)F)C5=CC=C(F)C=C5` [BMN-673], for which the efficacy was -16.8%.

As for `CCNC(=O)Nc1ncc(-c2cc(-c3c(C)cc(OC)cc3C)nc(-c3cnccn3)n2)s1` [BMS-4], the efficacy was 14%.

With `CN(CC(=O)N(Cc1ccc(C2CCCCC2)cc1)c1ccc(C(=O)O)c(O)c1)[S+](=O)([O-])c1c(F)c(F)c(F)c(F)c1F` [BP-1-102], the efficacy is -10.2%.

For the molecule `O=C(Cc1ccccc1)Nc1nnc(CCSCCc2nnc(NC(=O)Cc3ccccc3)s2)s1` [BPTES], the efficacy is -25%.

On to `CC(C)C[C@@H]1NC(=O)[C@@H](C(C)C)NC(=O)[C@@H]2CCCN2C(=O)[C@@H](CC(=O)O)NC(=O)[C@@H](Cc2c[nH]c3ccccc23)NC1=O` [BQ-123], for which the efficacy is -9.37%.

As to `C[N]1N=C(C)C2=C1OC(=C(/C#N)C2C3=CC=C(C=C3)C(F)(F)F)/N` (stereo unspecified) [BQU-57], the efficacy was -30.8%.

Take `CC(C)c1cnn2c(NCc3ccccc3)cc(NCCCCCCN)nc12` [BS-181]: the efficacy was -106%.

Take `Cc1c(Cl)cccc1[S+](=O)([O-])Nc1nc(CCN2CCOCC2=O)cs1` [BVT-3498]: the efficacy was -14.1%.

As to `O=C(NCCCNc1nc(Nc2cccc(NC(=O)N3CCCC3)c2)ncc1I)c1cccs1` [BX-795], the efficacy is -76.5%.

As for `CCC(C)C(N)\C1=N\C(CS1)C(=O)N[C@@H](CC(C)C)C(=O)N[C@H](CCC(O)=O)C(=O)N[C@@H]([C@@H](C)CC)C(=O)N[C@H]2CCCCNC(=O)[C@H](CC(N)=O)NC(=O)[C@@H](CC(O)=O)NC(=O)[C@H](CC3=CN=C[NH]3)NC(=O)[C@@H](CC4=CC=CC=C4)NC(=O)[C@@H](NC(=O)[C@@H](CCCN)NC2=O)[C@@H](C)CC` (stereo partly specified) [Bacitracin (Zinc)], the efficacy is -26.9%.

Take `OC1=CC2=C(C(=O)\C=C(/O2)C3=CC=CC=C3)C(=C1O)O` [Baicalein]: the efficacy is -14.7%.

Turning to `CNC1CCCN(C1)C2=C(F)C=C3C(=O)\C(=C/N(C4CC4)C3=C2OC)C(O)=O` (stereo unspecified) [Balofloxacin], the efficacy was -10.2%.

Take `O=C(O)CCNC(=O)c1ccc(/N=N/c2ccc(O)c(C(=O)O)c2)cc1` [Balsalazide disodium]: the efficacy was -11.7%.

On to `Cc1onc(-c2ccc(F)cc2)c1COc1ccc(C(=O)N2CC[S+](=O)([O-])CC2)cn1` [Basmisanil], for which the efficacy was -18.7%.

Regarding `CNC(=O)[C@H](Cc1ccccc1)NC(=O)[C@H](CC(C)C)[C@H](CSc1cccs1)C(=O)NO` [Batimastat], the efficacy is -46.2%.

Turning to `CCOC(=O)[C@H](CCc1ccccc1)N[C@H]1CCc2ccccc2N(CC(=O)O)C1=O` [Benazepril], the efficacy was -8.42%.

Regarding `Cl.NC(CO)C(=O)NNCc1ccc(O)c(O)c1O` (stereo unspecified) [Benserazide], the efficacy was -65.3%.

As for `CCCCC(=O)O[C@@]1([C@@H](C)C[C@H]2[C@@H]3CCC/4=C/C(=O)/C=C\[C@]4(C)[C@@]3(F)[C@@H](O)C[C@]12C)C(=O)CO` [Betamethasone valerate], the efficacy was -7.12%.

As to `CC(C)NCC(O)COc1ccc(CCOCC2CC2)cc1` (stereo unspecified) [Betaxolol], the efficacy is -9.42%.

As for `CC(C[N+](C)(C)C)OC(N)=O` (stereo unspecified) [Bethanechol chloride], the efficacy was -25.8%.

As for `C=C(C)[C@@H]1CC[C@]2(C(=O)O)CC[C@]3(C)[C@H](CC[C@@H]4[C@@]5(C)CC[C@H](O)C(C)(C)[C@@H]5CC[C@]43C)[C@@H]12` [Betulinic acid], the efficacy is 14.5%.

For `C=C(c1ccc(C(=O)O)cc1)c1cc2c(cc1C)C(C)(C)CCC2(C)C` [Bexarotene], the efficacy was -19.6%.
